The results in this text go back to ChEMBL document CHEMBL1201862, “PubChem BioAssay data set” (2004).

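48-hour exposure; five concentrations; linearly interpolated endpoints. GI50 is the concentration that inhibits growth by half.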 The source made the active and inactive calls. No stated cut-off is given here; in the data, active = GI50 up to about 1.1 µM and inactive = higher.

Assay in all cases: NCI anticancer screen, dose series, 48 h
The test system of experiment [1] is M14.
Experiment [2] deals with HL-60.
The subject of experiment [3] is COLO 205.
Experiment [4] has as its system TK-10.
In experiment [5] the test system is RXF 393.
Experiment [6] concerns BT-549.
Experiment [7] deals with HCT-116.
Experiment [8] concerns SF-295.
The subject of experiment [9] is SK-MEL-28.
In experiment [10] the test system is MDA-MB-435.
Experiment [11] has as its system Malme-3M.
The subject of experiment [12] is NCI-H522.
The subject of experiment [13] is K562.
Experiment [14] deals with 786-0.
Experiment [15] relates to HOP-62.
Experiment [16] relates to DU-145.
The test system of experiment [17] is SK-MEL-2.
For experiment [18], the system named is SN12C.
In experiment [19] the test system is HT-29.

With `CCCCCC(=O)Nc1[nH]nnc1C#N`, the GI50 in experiment [1], in experiment [2], in [3], in [4], in experiment [5] and in [6] was > 100 µM (inactive) each time. Besides, the GI50 in [7], in experiment [8], in experiment [9], in [10], in experiment [11] and in experiment [12] was > 100 µM (inactive) each time. The GI50 in experiment [13], in experiment [14], in [15], in [16], in experiment [17] and in experiment [18] was > 100 µM (inactive) throughout. Further, the GI50 in experiment [19] is > 100 µM (inactive).

With `CCOC(=O)N[C@H]1CCc2cc(OC)c(OC)c(OC)c2-c2ccc(SC)c(=O)cc21`, the GI50 in experiment [1] was < 0.01 µM (active); in experiment [2], < 0.01 µM (active); in experiment [3] it was < 0.01 µM (active); in experiment [4], 1 µM (active); in experiment [5] it was < 0.01 µM (active); in experiment [6], < 0.01 µM (active). Also, the GI50 in experiment [7] was < 0.01 µM (active); in experiment [8] it was < 0.01 µM (active); in [9] it was 0.746 µM (active); in experiment [10], < 0.01 µM (active); in [11] it was < 0.01 µM (active); in [12], < 0.01 µM (active). In addition, the GI50 in [13] was < 0.01 µM (active); in experiment [14] it was < 0.01 µM (active); in experiment [15], < 0.01 µM (active); in [16], < 0.01 µM (active); in [17], < 0.01 µM (active); in experiment [18], < 0.0287 µM (active). The GI50 in experiment [19] was < 0.01 µM (active).

Regarding `Cn1c(-c2ccc(C=O)o2)ccc1-c1ccc(C=O)o1`, the GI50 is 31 µM (inactive) in [1]; 19.8 µM (inactive) in experiment [2]; 87.7 µM (inactive) in experiment [3]; > 100 µM (inactive) in [4]; > 100 µM (inactive) in [5]; 55.8 µM (inactive) in [6]. Besides, the GI50 in [7] is 18.4 µM (inactive); in [8] it was 58.7 µM (inactive); in experiment [9], 40.1 µM (inactive); in [10], 38.6 µM (inactive); in experiment [11] it was 31.7 µM (inactive); in [12], 1.68 µM (inactive). Also, the GI50 was 35.5 µM (inactive) in [13]; 61.1 µM (inactive) in [14]; 45.3 µM (inactive) in experiment [15]; 49.4 µM (inactive) in [16]; > 100 µM (inactive) in experiment [17]; 37.6 µM (inactive) in experiment [18]. For the same molecule, in experiment [19], the GI50 was 36.1 µM (inactive).

In the case of `COc1c2ccccc2c(OC)c2nc(C)ccc12`, the GI50 in experiment [1] was > 100 µM (inactive); in experiment [2], 26.8 µM (inactive); in experiment [3], 56.1 µM (inactive); in experiment [4], > 100 µM (inactive); in [5], > 100 µM (inactive); in experiment [6], > 79.1 µM (inactive). The GI50 in [7] is > 80.2 µM (inactive); in experiment [8], > 100 µM (inactive); in [9], > 100 µM (inactive); in experiment [10] it was > 100 µM (inactive); in experiment [11] it was > 93.5 µM (inactive); in [12], 69.7 µM (inactive). Moreover, the GI50 in experiment [13] was 30.6 µM (inactive); in experiment [14], 51.9 µM (inactive); in experiment [15] it was > 100 µM (inactive); in experiment [16], > 100 µM (inactive); in experiment [17], > 100 µM (inactive); in experiment [18] it was > 100 µM (inactive). In addition, the GI50 in [19] is 49.3 µM (inactive).

As for `CC(=O)Nc1nc(C)c(S(=O)(=O)NC(=O)N2c3ccccc3CCc3ccccc32)s1`, the GI50 in [1], in experiment [2], in experiment [3], in [4], in [5] and in experiment [6] was > 100 µM (inactive) in each case. For the same molecule, the GI50 in experiment [7], in experiment [8], in [9], in [10], in experiment [11] and in experiment [12] was > 100 µM (inactive) in each case. The GI50 in [13], in experiment [14], in experiment [15], in [16], in experiment [17] and in [18] was > 100 µM (inactive) throughout. Also, the GI50 in experiment [19] was > 100 µM (inactive).

On to `COC(=O)[C@H](Cc1ccccc1)NC(=O)N1CCN(C(=O)N[C@@H](Cc2ccccc2)C(=O)OC)CCN(C(=O)N[C@@H](Cc2ccccc2)C(=O)OC)CC1`, for which the GI50 in experiment [1], in [2], in [3], in [4], in [5] and in experiment [6] was > 100 µM (inactive) in each case. In addition, the GI50 in [7], in experiment [8], in [9], in [10], in experiment [11] and in experiment [12] was > 100 µM (inactive) in each case. Besides, the GI50 in experiment [13], in [14], in [15], in [16], in experiment [17] and in experiment [18] was > 100 µM (inactive) throughout. In addition, the GI50 in experiment [19] is > 100 µM (inactive).

`COc1ccccc1N1CCN(CCCCNC(=O)c2ccc([N+](=O)[O-])o2)CC1`: the GI50 was 4.05 µM (inactive) in experiment [1]; 5.86 µM (inactive) in [2]; 2.38 µM (inactive) in [3]; 5.9 µM (inactive) in experiment [4]; 8.57 µM (inactive) in experiment [5]; 4.19 µM (inactive) in experiment [6]. For the same molecule, the GI50 is 10.3 µM (inactive) in experiment [7]; 11.6 µM (inactive) in [8]; 25.1 µM (inactive) in experiment [9]; 3.36 µM (inactive) in experiment [10]; 2.81 µM (inactive) in experiment [11]; 2.69 µM (inactive) in experiment [12]. Also, the GI50 in experiment [13] was 12.4 µM (inactive); in experiment [14] it was 6.82 µM (inactive); in [15], 5.18 µM (inactive); in experiment [16], 4.76 µM (inactive); in [17], 4.97 µM (inactive); in experiment [18], 3.27 µM (inactive). Besides, the GI50 in [19] is 2.74 µM (inactive).

As to `Cc1cc(C)c(-n2c(C)c(C)c(C#N)c2N)c(C)c1`, the GI50 in [1] was 27.5 µM (inactive); in experiment [2], 15.1 µM (inactive); in [3] it was 19.7 µM (inactive); in [4], 32.4 µM (inactive); in [5], 22.1 µM (inactive); in experiment [6] it was 34.8 µM (inactive). The GI50 was 18.8 µM (inactive) in experiment [7]; 36.4 µM (inactive) in experiment [8]; 37.1 µM (inactive) in [9]; 23 µM (inactive) in experiment [10]; 25.1 µM (inactive) in [11]; 21 µM (inactive) in experiment [12]. The GI50 in [13] is 11 µM (inactive); in [14] it was 41 µM (inactive); in experiment [15], 35.8 µM (inactive); in experiment [16], 38.1 µM (inactive); in [17], 19.5 µM (inactive); in experiment [18], 27.2 µM (inactive). Further, the GI50 in experiment [19] is 30.5 µM (inactive).

As for `C#CCCCC(=O)N(C(=O)C[S+]([O-])CC)c1ccccc1` (stereo not given), the GI50 in [1], in [2], in [3], in [4], in experiment [5] and in experiment [6] was > 100 µM (inactive) in each case. For the same molecule, the GI50 in [7], in [8], in experiment [9], in experiment [10], in [11] and in experiment [12] was > 100 µM (inactive) in each case. For the same molecule, the GI50 in experiment [13], in [14], in [15], in experiment [16], in experiment [17] and in experiment [18] was > 100 µM (inactive) throughout. Moreover, the GI50 in experiment [19] was > 100 µM (inactive).

For the molecule `CC(=O)Nc1ccc(S(=O)(=O)[N-]C2C(=O)c3ccccc3C(=O)C2[n+]2ccccc2)cc1` (stereo not given), the GI50 in experiment [1] is 14.1 µM (inactive); in [2] it was 13.8 µM (inactive); in [3] it was > 100 µM (inactive); in experiment [4] it was > 100 µM (inactive); in experiment [5], 16 µM (inactive); in [6], 3.02 µM (inactive). For the same molecule, the GI50 in [7] was > 100 µM (inactive); in experiment [8], 15.4 µM (inactive); in [9], 16.5 µM (inactive); in experiment [10], 4.09 µM (inactive); in [11], 12.4 µM (inactive); in experiment [12], 19.2 µM (inactive). Moreover, the GI50 was 23.3 µM (inactive) in experiment [13]; > 100 µM (inactive) in experiment [14]; 17.9 µM (inactive) in experiment [15]; > 100 µM (inactive) in experiment [16]; 12.5 µM (inactive) in experiment [17]; 99.3 µM (inactive) in [18]. In experiment [19], the GI50 was 45.1 µM (inactive).
